Source: patent EP0624573A1, “Iodo vitamin D3 compounds and method for preparing same” (WISCONSIN ALUMNI RESEARCH FOUNDATION, priority 1993, dated 1994)

How the values were obtained:
[1] = Bone calcium mobilization (serum calcium) in vitamin D-deficient, low calcium diet rats; assay type: in vivo; details: for Bone Calcium Mobilization (Serum Calcium): serum on day 7
Protocol: (§1) Rats were fed the vitamin D-deficient, low calcium (0.02%) diet for 3 weeks and then given the indicated dose in 0.1 ml propylene glycol:ethanol (95:5) intraperitoneally each day for 6 days. On day 7, serum was analyzed for calcium and the duodenum used to measure intestinal calcium transport as described by Martin et al. Am. J. Physiol.

HL-60 cells = assay: HL-60 differentiation assay, NBT (nitroblue tetrazolium reduction); assay type: cell-based, human; details: for percent of HL-60 cells having differentiated to monocytes: NBT assay, concentration of 1 x 10⁻⁷ molar (Fig. 1); for potency in promoting the differentiation of leukemia cells: in words, compared with 1α,25-dihydroxyvitamin D₃ (Fig. 1)
Protocol: This is illustrated by the biological assay results obtained for the claimed 22-iodo-vitamin D₃ compounds, which are summarized in Figs. 1 and 2, and Table 1. […] Differentiation activity was assessed by a standard differentiation assay, abbreviated in Fig. 1 as NBT (nitroblue tetrazolium reduction). The assay was conducted according to known procedures, as given, for example, by DeLuca et al U. S. Patent 4,717,721 and Ostrem et al, J. Biol. Chem. 262, 14164, 1987. For the assay, the differentiation activity of the test compounds is expressed in terms of the percent of HL-60 cells having differentiated to monocytes in response to a given concentration of test compound.

[2] = Intestinal calcium transport in vitamin D-deficient, low calcium diet rats; assay type: in vivo; details: for Intestinal Calcium Transport (Serosal/Mucosal Ratio): duodenum on day 7
Protocol: as §1

[3] = dose 0.1 µg/d/6 days intraperitoneally
[4] = dose 1.0 µg/d/6 days intraperitoneally

C=C1/C(=C\C=C2/CCC[C@]3(C)[C@@H]([C@H](C)CCCC(C)(C)O)CC[C@@H]23)C[C@@H](O)C[C@@H]1O [1,25-(OH)₂D₃, 1α,25-dihydroxyvitamin D₃, reference compound]
Bone Calcium Mobilization (Serum Calcium) [1, 3]: 5.9 ± 0.3 mg/100 ml | percent of HL-60 cells having differentiated to monocytes (HL-60 cells): ~90% | Intestinal Calcium Transport (Serosal/Mucosal Ratio) [2, 3]: 11.2 ± 1.2

C=C1/C(=C\C=C2/CCC[C@]3(C)[C@@H]([C@H](C)[C@@H](I)CCC(C)(C)O)CC[C@@H]23)C[C@@H](O)C[C@@H]1O [compound 9, (22S)-iodo-1α,25-dihydroxyvitamin D₃]
Bone Calcium Mobilization (Serum Calcium) [1, 4]: 4.9 ± 0.1 mg/100 ml | bone calcium mobilizing activity ([1]; in words, 1µg per day for six days): little or no bone calcium mobilizing activity | percent of HL-60 cells having differentiated to monocytes (HL-60 cells): the same degree of differentiation | potency in promoting the differentiation of leukemia cells (HL-60 cells): as potent as 1α,25-dihydroxyvitamin D₃ | biological activity in intestinal calcium transport relative to that of 1,25-(OH)₂D₃ ([2]; Table 1 (1.0 µg/d versus 0.1 µg/d of 1,25-(OH)₂D₃)): about double | Intestinal Calcium Transport (Serosal/Mucosal Ratio) [2, 4]: 22.8 ± 1.4

C=C1/C(=C\C=C2/CCC[C@]3(C)[C@@H]([C@H](C)[C@H](I)CCC(C)(C)O)CC[C@@H]23)C[C@@H](O)C[C@@H]1O [compound 11, (22R)-iodo-1α,25-dihydroxyvitamin D₃]
percent of HL-60 cells having differentiated to monocytes (HL-60 cells): the same degree of differentiation | potency in promoting the differentiation of leukemia cells (HL-60 cells): as potent as 1α,25-dihydroxyvitamin D₃
